Literature values as cited in patent US20220354960A1, “IMMUNE CHECKPOINT BLOCKING BISPECIFIC MOLECULES” (THE SCRIPPS RESEARCH INSTITUTE, priority 2019, published 2022).

Tested on: melanoma
Settings: for three-year survival of patients with melanoma: human, in vivo; for overall survival (>5 years): patients with melanoma

| Substance | three-year survival of patients with melanoma | overall survival (>5 years) |
| --- | --- | --- |
| Pembrolizumab: anti-programmed cell death-1 (PD-1) antibody | ~70% | ~30% |
| Ipilimumab: anti-cytotoxic T-lymphocyte antigen-4 (CTLA-4) antibody | ~70% | ~30% |
